Assay results published in patent publication US8778966B2, “Quinolinone derivatives as PARP and tank inhibitors” (Janssen Pharmaceutica, NV, priority 2007, dated 2014).
Where two headings read alike, the source gives them in different places.

Columns and labels:
HCT116 cells [1] = test: Mitotic arrest assay on HCT116 cells (phospho-histone H3 Ser10); type: cell-based, human; settings: Homo sapiens, HCT-116, HCT116 cells; lowest active dose; read-out: Mitotic arrest HCT116 LAD (converted)
Procedure, shortened: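 Read-out is imaging of phospho-histone H3 Ser10 (Alexa Fluor 488) with Hoechst nuclear counting, after 6 h compound exposure at 37 °C, DMSO ≤0.1%. LAD is the lowest dose at which the blank-corrected value over SD exceeds 5; triplicates, low-count wells excluded.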

HCT116 cells [2] = test: Antiproliferative activity, Alamar Blue assay, HCT116 cells; type: cell-based, human; settings: Homo sapiens, HCT-116, HCT116 cells, read-out: HCT116 antiproliferative activity pIC50 (converted)
Procedure, shortened: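 Readout is resazurin fluorescence (ex 540, em 590 nm) after a 4 h dye incubation at 37 °C, following 4-day compound treatment of HCT116 cells plated 24 h earlier. Results expressed as % viable cells versus untreated; pIC50 derived from probit-fitted IC50.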

Row | Structure (SMILES) | minimal effective concentration (HCT116 cells [1]) [µM] | IC50 (HCT116 cells [2]) [nM] | IC50 (HCT116 cells [2]; Alamar Blue) [nM]
1 | CCc1cc2ccc(C(C)(C#N)Cc3cccnc3)cc2[nH]c1=O (centres unmarked) [Compound 97] | 3.16 | 2510 | 
2 | CCc1cc2ccc(C(C)(C#N)Cc3ccncc3)cc2[nH]c1=O (centres unmarked) [Compound 98] | > 10 | > 10000 | 
3 | CCc1cc2ccc(C(C)(C#N)Cc3cc(Cl)ccc3Cl)cc2[nH]c1=O (centres unmarked) [Compound 99] | 0.1 | 79.4 | 
4 | CCc1cc2ccc(C(C)(C#N)Cc3ccccc3C#N)cc2[nH]c1=O (centres unmarked) [Compound 101] | 0.316 | 2510 | 
5 | CCc1cc2ccc(C(C)(C#N)Cc3ccccc3OC(F)(F)F)cc2[nH]c1=O (centres unmarked) [Compound 102] | 0.316 | 2000 | 
6 | CCc1cc2ccc(C(C)(C#N)Cc3ccccc3C(F)(F)F)cc2[nH]c1=O (centres unmarked) [Compound 103] | 0.316 | 1000 | 
7 | Cc1cc2ccc(C(C)(C#N)Cc3cc4ccccc4[nH]3)cc2[nH]c1=O (centres unmarked) [Compound 234] | 3 |  | 5010
8 | CCc1cc2ccc(C(C)(C#N)Cc3ccc(F)c(C#N)c3)cc2[nH]c1=O (centres unmarked) [Compound 267] | 0.1 |  | 200
9 | CCc1cc2ccc(C(C)(C#N)CCOc3ccccc3C#N)cc2[nH]c1=O (centres unmarked) [Compound 276] | 1 |  | 1580
10 | CCc1cc2ccc(C(C)(C#N)CCOc3cc(Cl)c(Cl)cc3Cl)cc2[nH]c1=O (centres unmarked) [Compound 277] | 0.3 |  | 501
11 | CCc1cc2ccc(C(C)(C#N)CCOc3ccccc3F)cc2[nH]c1=O (centres unmarked) [Compound 278] | 1 |  | 1580
12 | CCc1cc2ccc(C(C)(C#N)CCOc3ccc4c(c3)OCO4)cc2[nH]c1=O (centres unmarked) [Compound 279] | 1 |  | 1260
13 | CCc1cc2ccc(C(C)(C#N)Cc3cc(OC)cc(OC)c3)cc2[nH]c1=O (centres unmarked) [Compound 332] | 0.1 |  | 100
